Test results taken from ChEMBL document CHEMBL1165933, “Diosgenin, a plant-derived sapogenin, enhances regulatory T-cell immunity in the intestine of mice with food allergy” (J Nat Prod, 2010).
The source made the active and inactive calls. The rule behind the calls is not given here.

Experiments:
Format in all cases: functional, organism-based
Mus musculus [1] = test: Antiallergic effect in ovalbumin-sensitized and repeatedly challenged BALB/c mouse food allergy model assessed as inhibition of duodenal GATA3 expression at 100 mg/kg, po by immunohistochemistry; design: dose 100 mg/kg
Mus musculus [2] = test: Enhancement in regulatory T-cell immunity in intestine of ovalbumin-sensitized and repeatedly challenged BALB/c mouse food allergy model assessed as increase in Foxp3+ and IL10+ cells at 200 mg/kg, po by immunohistochemistry; design: dose 200 mg/kg
Mus musculus [3] = test: Effect on T-cell infiltration in ovalbumin-sensitized and repeatedly challenged BALB/c mouse food allergy model assessed as CD3+ cells at 200 mg/kg, po by immunohistochemistry; design: dose 200 mg/kg
Mus musculus [4] = test: Effect on T-cell infiltration in ovalbumin-sensitized and repeatedly challenged BALB/c mouse food allergy model assessed as CD3+ cells at 100 mg/kg, po by immunohistochemistry; design: dose 100 mg/kg
Mus musculus [5] = test: Enhancement in regulatory T-cell immunity in intestine of ovalbumin-sensitized and repeatedly challenged BALB/c mouse food allergy model assessed as increase in Foxp3+ and IL10+ cells at 100 mg/kg, po by immunohistochemistry; design: dose 100 mg/kg
Mus musculus [6] = test: Effect on TGFbeta+ cells in ovalbumin-sensitized and repeatedly challenged BALB/c mouse food allergy model at 100 mg/kg, po by immunohistochemistry; design: dose 100 mg/kg
Mus musculus [7] = test: Enhancement in regulatory T-cell immunity in intestine of ovalbumin-sensitized and repeatedly challenged BALB/c mouse food allergy model assessed as increase in Foxp3+ and IL10+ cells at 100 mg/kg, po by RT-PCR; design: dose 100 mg/kg
Mus musculus [8] = test: Antiallergic effect in ovalbumin-sensitized and repeatedly challenged BALB/c mouse food allergy model assessed as inhibition of duodenal GATA3 expression at 200 mg/kg, po by immunohistochemistry; design: dose 200 mg/kg
Mus musculus [9] = test: Effect on TGFbeta+ cells in ovalbumin-sensitized and repeatedly challenged BALB/c mouse food allergy model at 200 mg/kg, po by immunohistochemistry; design: dose 200 mg/kg
Mus musculus [10] = test: Antiallergic effect in ovalbumin-sensitized and repeatedly challenged BALB/c mouse food allergy model assessed as attenuation of duodenal interleukin-4 expression at 200 mg/kg, po by immunohistochemistry; design: dose 200 mg/kg
Mus musculus [11] = test: Antiallergic effect in ovalbumin-sensitized and repeatedly challenged BALB/c mouse food allergy model assessed as attenuation of duodenal interleukin-4 expression at 100 mg/kg, po by immunohistochemistry; design: dose 100 mg/kg
Mus musculus [12] = test: Enhancement in regulatory T-cell immunity in intestine of ovalbumin-sensitized and repeatedly challenged BALB/c mouse food allergy model assessed as increase in Foxp3+ and IL10+ cells at 200 mg/kg, po by RT-PCR; design: dose 200 mg/kg

With `C[C@@H]1CC[C@@]2(OC1)O[C@H]1C[C@H]3[C@@H]4CC=C5C[C@@H](O)CC[C@]5(C)[C@H]4CC[C@]3(C)[C@H]1[C@@H]2C` the inhibition (Mus musculus [1]) was “Active”, the Activity (Mus musculus [2]) was “Active” and the Activity (Mus musculus [3]) was “inactive”. The Activity (Mus musculus [4]) was “inactive”, the Activity (Mus musculus [5]) was “Active” and the Activity (Mus musculus [6]) was “inactive”. The Activity (Mus musculus [7]) was “Active”, the inhibition (Mus musculus [8]) was “Active” and the Activity (Mus musculus [9]) was “inactive”. The inhibition (Mus musculus [10]) was “Active”, the inhibition (Mus musculus [11]) was “Active” and the Activity (Mus musculus [12]) was “Active”.
